Results: patent publication US20250136595A1, “ACYLATED HETEROCYCLIC QUINAZOLINE DERIVATIVES AS INHIBITORS OF ERBB2” (Enliven Inc., priority 2022, published 2025)

Legend:
[1] = target: T1, phosphorylated ERBB2 (pERBB2) (Homo sapiens, UniProt P04626); test: Detection of phosphorylated ERBB2 (pERBB2) by ELISA in BT-474 cells; type: cell-based; conditions: four hour incubation with compound
T1 construct: endogenous in cells; host or cells: BT-474
Protocol: BT-474 cells were seeded into a 96-well at 2.0*10^4 cells/100 μl/well. Compounds were dissolved and serially diluted in DMSO. The compounds were then were added, mixed, and incubated for four hours at 37° C., 5% CO2. Compounds were added using four-fold dilutions at final concentrations ranging from 10 μM to 0.01 nM. Following the four hour incubation with compounds, cell lysates were prepared. Plates were centrifuged for 5 min at 3000 RPM, and supernatant was removed from each well. Cells were washed 3 times by resuspension in 150 μl PBS, followed by centrifugation and removal of the supernatant, as above. […] Cells were incubated with lysis buffer for 1 hour at 4° C., and then stored at -80° C. Enzyme-linked immunosorbent assays (ELISA) were performed to measure phosphorylated ERBB2 levels. […] The next day, plates were washed with PBS+0.05% Tween20 (PBST). 150 μl of 5% BSA blocking solution was added for 1 hour at room temperature, with shaking. Plates were washed with PBST. Cell lysates were thawed and 100 μl of lysate was added to the ELISA plate. The plates were incubated for 2 hours at room temperature, with shaking. […] Plates were incubated for 1 hour at room temperature, with shaking. Plates were then washed with PBST, and 100 μl TMB substrate solution (R&D Systems, cat #DY999) was added. Plate were incubated in the dark for 20 minutes at room temperature. 50 μl of Stop solution (R&D Systems, cat #DY994) (50 μl) was added to each well and mixed. Optical density at 450 nm was read on an EnSpire plate reader (Perkin Elmer). The remaining kinase activity by calculated using the following formula: % Relative activity=100×([…]). The low and high control values (“LC” and “HC”) were generated from lysate from wells without cells or with cells treated with 0.1% DMSO, respectively.

Ba/F3 ERBB2 YVMA = Ba/F3 ERBB2 YVMA (Homo sapiens, UniProt P04626, DUP772-775, cells depend on it); test: Cell viability assay (CellTiter Glo) in Ba/F3 cells engineered to express ERBB2 YVMA; type: cell-based, mouse; conditions: Ba/F3 cells expressing human ERBB2 YVMA mutant, 72 hours, % viability, read-out: Ba/F3 ERBB2 YVMA IC50
Chain of Ba/F3 ERBB2 YVMA (P04626 with tags, fused parts or gaps DUP772-775): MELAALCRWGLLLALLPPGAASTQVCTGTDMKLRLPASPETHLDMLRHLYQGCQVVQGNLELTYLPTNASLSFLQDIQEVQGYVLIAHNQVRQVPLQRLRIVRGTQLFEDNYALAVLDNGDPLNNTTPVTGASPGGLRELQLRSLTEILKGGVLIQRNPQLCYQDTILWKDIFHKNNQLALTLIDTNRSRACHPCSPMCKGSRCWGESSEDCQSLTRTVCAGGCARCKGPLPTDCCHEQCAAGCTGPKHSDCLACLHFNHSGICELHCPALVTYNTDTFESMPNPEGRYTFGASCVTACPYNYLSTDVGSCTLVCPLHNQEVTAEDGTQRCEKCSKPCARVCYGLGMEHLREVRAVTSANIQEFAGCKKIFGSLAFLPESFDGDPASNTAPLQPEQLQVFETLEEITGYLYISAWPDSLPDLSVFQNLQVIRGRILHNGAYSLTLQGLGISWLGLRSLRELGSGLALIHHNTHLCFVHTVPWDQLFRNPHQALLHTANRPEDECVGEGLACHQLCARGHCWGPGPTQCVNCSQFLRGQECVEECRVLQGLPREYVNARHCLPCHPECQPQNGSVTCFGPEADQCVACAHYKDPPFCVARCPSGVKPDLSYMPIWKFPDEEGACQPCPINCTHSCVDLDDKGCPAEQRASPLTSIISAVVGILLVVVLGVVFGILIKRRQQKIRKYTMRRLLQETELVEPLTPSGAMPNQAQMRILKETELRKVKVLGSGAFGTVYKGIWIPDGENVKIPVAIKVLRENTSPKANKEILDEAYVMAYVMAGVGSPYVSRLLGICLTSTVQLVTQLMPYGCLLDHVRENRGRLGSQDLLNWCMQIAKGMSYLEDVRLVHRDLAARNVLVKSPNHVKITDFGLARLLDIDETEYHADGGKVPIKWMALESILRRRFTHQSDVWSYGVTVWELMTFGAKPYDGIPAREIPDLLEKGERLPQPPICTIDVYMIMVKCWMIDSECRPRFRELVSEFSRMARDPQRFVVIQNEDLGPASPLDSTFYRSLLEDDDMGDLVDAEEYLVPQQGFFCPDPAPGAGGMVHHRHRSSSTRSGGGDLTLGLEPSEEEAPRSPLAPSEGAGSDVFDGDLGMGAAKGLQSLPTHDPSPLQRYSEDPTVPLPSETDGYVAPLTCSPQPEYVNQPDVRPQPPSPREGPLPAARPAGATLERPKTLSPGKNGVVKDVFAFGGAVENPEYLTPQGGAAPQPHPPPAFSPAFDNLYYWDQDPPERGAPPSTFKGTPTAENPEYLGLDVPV
Protocol: Cells were treated with compounds, and cell viability was measured as a metric of kinase inhibition.
The Ba/F3 cell line is IL-3-dependent mouse cell line derived from the C3H mouse strain. Ba/F3 cell lines were engineered to express human ERBB2 or EGFR kinases, rendering the cells IL-3 independent. The lines were generated via retroviral transduction utilizing a Moloney murine leukemia virus (MMLV) promoter, and constructs are stably integrated into the cell genome. The sequences of the ERBB2 and EGFR genes used were NCBI Reference Sequences NM_004448.3 and NM_005228.3, respectively.
Similarly, Ba/F3 cell lines engineered to express EGFR, ERBB2, or ERBB2 mutants were grown, harvested, counted and seeded at 3000 cells per well in 96-well plates for the data sets shown in Tables B3-B4. A subset of wells contained media only (low control, “LC”).
Table B1 provides the growth media and number of cells seeded per well for the each cell line.
Compounds were dissolved in DMSO and serially diluted. Serially-diluted compound or a DMSO only control (high control, “HC”) was added to the plated cells in each well. […] The final proportion of DMSO never exceeded 0.1%.
Plates were placed in a 37° C., 5% CO2 incubator for 72 hours. Plates were then removed from the incubator and equilibrated for 15 minutes at room temperature. 40 μl of CellTiter Glo reagent (Promega) was added to measure the relative level of metabolically active cells by quantifying intracellular ATP concentrations. Plates were incubated for 30 minutes at room temperature, and luminescence was measured. Percent viability was normalized to a vehicle control only using the following formula: % viability=100×(Lumsample−LumLC)/(LumHC−LumLC). Graphical curves were fitted using a nonlinear regression model with a sigmoidal dose response.

[2] = target: T2, phosphorylated EGFR (pEGFR) (Homo sapiens, UniProt P00533); test: Detection of phosphorylated EGFR (pEGFR) in EGF-stimulated A431 cells (AlphaLISA); type: cell-based; conditions: A431 cells (10% FBS), 4 hours incubation, EGF 30 ng/mL for 10 minutes
T2 construct: performed to measure phosphorylated EGFR levels using A431 cells; endogenous in cells; host or cells: A431
T2 sequence (P00533 25-1210): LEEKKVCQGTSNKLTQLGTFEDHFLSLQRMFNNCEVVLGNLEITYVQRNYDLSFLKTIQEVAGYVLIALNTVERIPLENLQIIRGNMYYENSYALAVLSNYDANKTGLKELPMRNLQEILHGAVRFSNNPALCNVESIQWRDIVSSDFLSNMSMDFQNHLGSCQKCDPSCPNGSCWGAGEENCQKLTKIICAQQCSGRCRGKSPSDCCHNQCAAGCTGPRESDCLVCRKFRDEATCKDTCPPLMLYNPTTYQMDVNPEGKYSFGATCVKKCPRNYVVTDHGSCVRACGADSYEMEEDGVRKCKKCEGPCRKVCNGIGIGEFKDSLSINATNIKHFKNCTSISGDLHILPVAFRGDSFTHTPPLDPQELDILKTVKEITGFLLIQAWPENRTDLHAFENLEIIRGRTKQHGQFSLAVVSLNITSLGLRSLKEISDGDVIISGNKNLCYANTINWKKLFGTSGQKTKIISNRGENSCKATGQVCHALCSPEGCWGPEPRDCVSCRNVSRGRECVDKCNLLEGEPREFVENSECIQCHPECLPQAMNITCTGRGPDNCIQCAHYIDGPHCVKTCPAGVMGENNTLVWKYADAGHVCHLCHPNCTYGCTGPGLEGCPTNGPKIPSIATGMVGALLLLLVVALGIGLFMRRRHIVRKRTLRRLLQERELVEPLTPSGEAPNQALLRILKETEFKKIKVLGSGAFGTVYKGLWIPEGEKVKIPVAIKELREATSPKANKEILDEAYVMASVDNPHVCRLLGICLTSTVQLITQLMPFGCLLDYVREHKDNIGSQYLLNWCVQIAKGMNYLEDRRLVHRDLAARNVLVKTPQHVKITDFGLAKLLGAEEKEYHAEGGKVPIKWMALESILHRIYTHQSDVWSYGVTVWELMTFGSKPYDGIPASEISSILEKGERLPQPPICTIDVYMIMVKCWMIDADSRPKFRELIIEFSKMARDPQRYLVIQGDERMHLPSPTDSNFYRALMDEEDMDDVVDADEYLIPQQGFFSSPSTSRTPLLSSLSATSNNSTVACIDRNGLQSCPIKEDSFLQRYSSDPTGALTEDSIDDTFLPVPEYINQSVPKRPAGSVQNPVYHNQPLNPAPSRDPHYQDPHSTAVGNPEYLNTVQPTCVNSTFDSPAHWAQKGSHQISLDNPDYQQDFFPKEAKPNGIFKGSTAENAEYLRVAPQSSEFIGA
Protocol: Enzyme-linked immunosorbent assays (ELISA) were performed to measure phosphorylated EGFR levels using A431 cells (10% FBS). A431 (1.0*10^4 cells/40 μl/well) cells were seeded in 384 well. Compounds were dissolved in DMSO, serially diluted in DMSO and then were added, mixed, and incubated for 4 hours at 37° C., 5% CO2. Following the 4-hours incubation, cells were stimulated for 10 minutes with EGF (Invitrogen, cat #PHG0311) at a final concentration of 30 ng/mL in the incubator. The media was aspirated and cells were lysed in 10 μL lysis buffer with protease and phosphatase inhibitors (PerkinElmer, cat #ALSU-PEGFR-A50K). The plates were placed on a shaker for 5 minutes and then incubated for 30 min at 4° C. for complete lysis. The lysate was transferred to an Optiplate (Perkin Elmer, cat #6007290).
Acceptor mix (PerkinElmer, cat #ALSU-PEGFR-A50K) was prepared just before use and 5 μL was dispensed to all the wells, followed by a 1.5-2 h incubation at room temperature in dark. The donor mix (PerkinElmer, cat #ALSU-PEGFR-A50K) was prepared under low light conditions prior to use and 5 μl of donor mix was added to all the wells under subdued lighting or green filters. The plates were placed on a shaker for 5 min, sealed, and incubated overnight at room temperature in dark. Plates were read on the Envision (PerkinElmer) using standard AlphaLISA settings.
The percentage of inhibition on EGFR phosphorylation was calculated following equation: % Inhibition=100×(LumHC−LumSample)/(LumHC−LumLC). The low and high controls (LC/HC) are generated from lysate from wells with cells treated with DMSO or […] Staurosporine (BioAustralis, cat #BIA-S1086), […]. IC50 values were calculated by fitting the Curve using XLfit (v5.3.1.3), equation 201: Y=Bottom+ (Top−Bottom)/(1+10^((LogIC50−X)*HillSlope)).

T1 sequence (P04626 23-1255): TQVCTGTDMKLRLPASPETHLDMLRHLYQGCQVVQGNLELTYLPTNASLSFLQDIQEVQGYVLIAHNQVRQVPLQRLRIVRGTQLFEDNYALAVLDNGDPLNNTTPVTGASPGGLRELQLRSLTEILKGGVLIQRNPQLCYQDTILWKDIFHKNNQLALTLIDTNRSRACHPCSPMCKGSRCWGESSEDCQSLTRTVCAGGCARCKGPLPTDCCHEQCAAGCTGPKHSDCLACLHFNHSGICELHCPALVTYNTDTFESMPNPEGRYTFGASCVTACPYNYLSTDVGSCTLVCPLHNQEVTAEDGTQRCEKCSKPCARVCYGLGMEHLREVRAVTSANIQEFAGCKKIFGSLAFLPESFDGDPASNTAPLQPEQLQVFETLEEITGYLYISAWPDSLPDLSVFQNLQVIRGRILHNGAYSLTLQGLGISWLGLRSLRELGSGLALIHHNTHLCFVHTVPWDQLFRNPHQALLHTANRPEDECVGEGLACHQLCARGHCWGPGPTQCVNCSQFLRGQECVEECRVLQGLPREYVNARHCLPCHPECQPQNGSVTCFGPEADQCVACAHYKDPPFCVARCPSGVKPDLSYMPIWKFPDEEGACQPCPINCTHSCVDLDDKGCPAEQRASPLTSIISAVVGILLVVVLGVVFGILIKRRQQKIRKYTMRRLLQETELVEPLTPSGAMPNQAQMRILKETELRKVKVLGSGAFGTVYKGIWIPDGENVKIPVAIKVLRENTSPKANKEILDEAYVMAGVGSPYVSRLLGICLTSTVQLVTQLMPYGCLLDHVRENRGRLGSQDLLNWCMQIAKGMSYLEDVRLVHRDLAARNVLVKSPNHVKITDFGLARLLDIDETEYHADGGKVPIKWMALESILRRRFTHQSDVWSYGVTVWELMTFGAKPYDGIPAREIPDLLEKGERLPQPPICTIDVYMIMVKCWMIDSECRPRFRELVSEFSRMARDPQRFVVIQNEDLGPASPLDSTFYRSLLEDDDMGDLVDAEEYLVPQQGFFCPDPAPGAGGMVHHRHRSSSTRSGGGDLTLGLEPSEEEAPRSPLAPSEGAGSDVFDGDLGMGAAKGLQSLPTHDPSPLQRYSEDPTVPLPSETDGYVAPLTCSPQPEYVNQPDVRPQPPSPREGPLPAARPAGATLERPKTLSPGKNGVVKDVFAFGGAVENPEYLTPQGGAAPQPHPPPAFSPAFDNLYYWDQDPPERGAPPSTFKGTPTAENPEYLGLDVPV

Structure (SMILES) | IC50 [1] [nM] | GI50 (Ba/F3 ERBB2 YVMA) [nM] | IC50 [2] [nM]
C=CC(=O)N1CCN(c2cc3c(Nc4ccc(Cc5ccn6ncnc6c5)c(C)c4)ncnc3cn2)CC1 [Compound 103, 1-(4-(4-((4-([1,2,4]triazolo[1,5-a]pyridin-7-ylmethyl)-3-methylphenyl)amino)pyrido[3,4-d]pyrimidin-6-yl)piperazin-1-yl)prop-2-en-1-one] | 16 | 24.9 | 2770
Cc1cc(Nc2ncnc3ccc(N4CCN(C(=O)/C=C/CN(C)C)CC4)nc23)ccc1Cc1ccc2c(c1)ncn2C [Compound 120, (E)-4-(dimethylamino)-1-(4-(4-((3-methyl-4-((1-methyl-1H-benzo[d]imidazol-5-yl)methyl)phenyl)amino)pyrido[3,2-d]pyrimidin-6-yl)piperazin-1-yl)but-2-en-1-one] | 36.5 | 7.1 | 2080
Cc1cc(Nc2ncnc3ccc(N4CCN(C(=O)/C=C/CN(C)C)C[C@@H]4C)nc23)ccc1Cc1ccc2c(c1)ncn2C [Compound 126, (S,E)-4-(dimethylamino)-1-(3-methyl-4-(4-((3-methyl-4-((1-methyl-1H-benzo[d]imidazol-5-yl)methyl)phenyl)amino)pyrido[3,2-d]pyrimidin-6-yl)piperazin-1-yl)but-2-en-1-one] | 145 | 29.6 | > 10000
CC#CC(=O)N1C2CC1CN(c1ccc3ncnc(Nc4ccc(Oc5ccn6ncnc6c5)c(C)c4)c3n1)C2 [Compound 29, 1-(3-{4-[(3-methyl-4-{[1,2,4]triazolo[1,5-a]pyridin-7-yloxy}phenyl)amino]pyrido[3,2-d]pyrimidin-6-yl}-3,6-diazabicyclo[3.1.1]heptan-6-yl)but-2-yn-1-one] |  | 35.9 | 5430
C=CC(=O)N1CCN(c2ccc3ncnc(Nc4ccc(Oc5ccn6ncnc6c5)c(C)c4)c3n2)[C@@H](C)C1 [Compound 12, 1-[(3S)-3-methyl-4-{4-[(3-methyl-4-{[1,2,4]triazolo[1,5-a]pyridin-7-yloxy}phenyl)amino]pyrido[3,2-d]pyrimidin-6-yl}piperazin-1-yl]prop-2-en-1-one] | 13.6 | 7.49 | 1180
C=CC(=O)N1CCN(c2ccc3ncnc(Nc4ccc(Oc5ccc6scnc6c5)c(C)c4)c3n2)CC1 [Compound 119, 1-(4-(4-((4-(benzo[d]thiazol-5-yloxy)-3-methylphenyl)amino)pyrido[3,2-d]pyrimidin-6-yl)piperazin-1-yl)prop-2-en-1-one] | 26 | 4.67 | 97
Cc1cc(Nc2ncnc3ccc(NC4=NC(C)(C)CO4)cc23)ccc1Oc1ccn2ncnc2c1 [Tucatinib, tucatinib, reference compound] |  | 356 | 
C=CC(=O)N1CC[C@H](Oc2ccc3ncnc(Nc4ccc(Oc5ccc6c(c5)ncn6C)c(C)c4)c3c2)C1 [Compound 38, 1-[(3S)-3-{[4-({3-methyl-4-[(1-methyl-1,3-benzodiazol-5-yl)oxy]phenyl}amino)quinazolin-6-yl]oxy}pyrrolidin-1-yl]prop-2-en-1-one] | 7.56 | 7.22 | 462
C=CC(=O)N1CCN(c2ccc3ncnc(Nc4ccc(CN5CCn6ncnc6C5)c(C)c4)c3n2)CC1 [Compound 34, 1-(4-{4-[(3-methyl-4-{5H,6H,8H-[1,2,4]triazolo[1,5-a]pyrazin-7-ylmethyl}phenyl)amino]pyrido[3,2-d]pyrimidin-6-yl}piperazin-1-yl)prop-2-en-1-one] | 68.9 | 255 | > 10000
CC#CC(=O)N1CCN(c2ncc3ncnc(Nc4ccc(Oc5ccc6c(c5)ncn6C)c(C)c4)c3n2)C[C@H]1C [Compound 72, (R)-1-(2-methyl-4-(8-((3-methyl-4-((1-methyl-1H-benzo[d]imidazol-5-yl)oxy)phenyl)amino)pyrimido[5,4-d]pyrimidin-2-yl)piperazin-1-yl) but-2-yn-1-one] | 67.9 | 10.1 | 2680
C=CC(=O)N1CCN(c2ccc3ncnc(Nc4ccc(Oc5ccn6ncnc6c5)c(C)c4)c3c2F)C(C)C1 (stereo not drawn) [Compound 114, 1-(4-{5-fluoro-4-[(3-methyl-4-{[1,2,4]triazolo[1,5-a]pyridin-7-yloxy}phenyl)amino]quinazolin-6-yl}-3-methylpiperazin-1-yl)prop-2-en-1-one] | 45.9 | 53.9 | > 10000
C=CC(=O)N1CCN(c2ccc3ncnc(Nc4ccc(Cc5ccn6ncnc6c5)c(C)c4)c3n2)CC1 [Compound 110, 1-(4-(4-((4-([1,2,4]triazolo[1,5-a]pyridin-7-ylmethyl)-3-methylphenyl)amino)pyrido[3,2-d]pyrimidin-6-yl)piperazin-1-yl)prop-2-en-1-one] | 9.86 | 13.3 | 3070
C=CC(=O)N1CCCC2(C1)CN(c1ccc3ncnc(Nc4ccc(Oc5ccn6ncnc6c5)c(C)c4)c3n1)C2 [Compound 46, 1-(2-{4-[(3-methyl-4-{[1,2,4]triazolo[1,5-a]pyridin-7-yloxy}phenyl)amino]pyrido[3,2-d]pyrimidin-6-yl}-2,6-diazaspiro[3.5]nonan-6-yl)prop-2-en-1-one] | 45.3 | 24.6 | > 10000
CC#CC(=O)N1CCN(c2ccc3ncnc(Nc4ccc(Oc5ccn6ncnc6c5)c(C)c4)c3n2)[C@H](C)C1 [Compound 24, 1-[(3R)-3-methyl-4-{4-[(3-methyl-4-{[1,2,4]triazolo[1,5-a]pyridin-7-yloxy}phenyl)amino]pyrido[3,2-d]pyrimidin-6-yl}piperazin-1-yl]but-2-yn-1-one] | 91.4 | 68.9 | > 10000
C=CC(=O)N1CCN(c2ccc3ncnc(Nc4ccc(Oc5ccc6c(c5)ncn6C)c(C)c4)c3n2)C[C@H]1C [Compound 48, 1-[(2R)-2-methyl-4-[4-({3-methyl-4-[(1-methyl-1,3-benzodiazol-5-yl)oxy]phenyl}amino)pyrido[3,2-d]pyrimidin-6-yl]piperazin-1-yl]prop-2-en-1-one] | 33.2 | 18.3 | 1200
